{"source": "patent US20110189347A1", "about": "(priority 2008, published 2011)", "key": {"[1]": {"test": "Growth performance of broiler chickens, floor pen trial over five weeks (Example 6)", "type": "in vivo", "details": "for numerical improvement of weight gain compared to the control: day 1 to day 36", "excerpt": "The objective of the present trial (Trial A) was to evaluate the effects of sucinic acid on the growth performance of broiler chickens in a floor pen trial over five weeks. Succinic acid was supplemented at four different dose levels. […] Each group was placed in one floor pen littered with wood shavings and allocated to one of the different treatments. Each treatment was replicated with 4 groups per sex. Birds had ad libitum access to feed and tap water. […] Chickens received diets based on soybean meal, and wheat as main ingredients (Table 6). […] The target quantities of succinic acid were added on top to the feed, mixed with appropriate amounts of maize starch as a carrier: […] For the statistical evaluation of the data, a one-factorial analysis of variance for each diet (factor: treatment) was carried out. Where significant treatment effects (p<0.05) were indicated, the differences among treatment means were subsequently analyzed with the Newman-Keuls test."}, "[2]": {"tested_on": "commensal Escherichia coli", "test": "microbe, parasite or virus in culture"}, "[3]": {"details": "0.5% in diet, 29 days"}, "Clostridium perfringens": {"tested_on": "Clostridium perfringens", "test": "microbe, parasite or virus in culture", "type": "cell-based"}, "Enterococcus faecalis": {"tested_on": "Enterococcus faecalis", "test": "microbe, parasite or virus in culture"}, "[4]": {"details": "for Daily feed intake / Live weight of piglets: dietary inclusion 1.0%"}, "[5]": {"tested_on": "Salmonella enterica subsp enterica serovar Enteritidis", "test": "microbe, parasite or virus in culture"}, "[6]": {"tested_on": "Salmonella enterica subsp enterica serovar Typhimurium", "test": "microbe, parasite or virus in culture"}}, "note": "Read-outs that look alike come from different tables or passages of the source.", "data": [{"smiles": "COC[C@H]1O[C@@H](OC2OC[C@@H]3O[C@]4(O[C@H]3[C@H]2OC(=O)C(C)C)O[C@H](C)[C@@](O)(C(C)=O)[C@@H]2OCO[C@H]24)[C@@H](OC)[C@@H](O)[C@@H]1O[C@@H]1O[C@H](C)[C@H](OC)[C@H](O[C@H]2C[C@@]3(C)OC4(C[C@@H](O)[C@H](O[C@H]5C[C@@H](O)[C@H](OC(=O)c6c(C)c(Cl)c(O)c(Cl)c6OC)[C@@H](C)O5)[C@@H](C)O4)O[C@@H]3[C@@H](C)O2)[C@H]1O", "note": "(stereo partly drawn) [Avilamycin, reference compound]", "values": [{"measurement": "Feed conversion", "setting": "[1]; Day 1-22, 10 mg/kg feed", "value": "1.462^A g feed/g gain"}, {"measurement": "Feed conversion, relative to control (100)", "setting": "[1]; Day 1-22, 10 mg/kg feed", "value": 101.0}, {"measurement": "Feed intake", "setting": "[1]; Day 1-22, 10 mg/kg feed", "value": "1450^A g"}, {"measurement": "Weight gain", "setting": "[1]; Day 1-22, 10 mg/kg feed", "value": "992^BC g"}, {"measurement": "Weight gain, relative to control (100)", "setting": "[1]; Day 1-22, 10 mg/kg feed", "value": 104.1}, {"measurement": "Feed conversion", "setting": "[1]; Day 1-36, 10 mg/kg feed", "value": "1.638^A g feed/g gain"}, {"measurement": "Feed conversion, relative to control (100)", "setting": "[1]; Day 1-36, 10 mg/kg feed", "value": 100.9}, {"measurement": "Feed intake", "setting": "[1]; Day 1-36, 10 mg/kg feed", "value": "3860^A g"}, {"measurement": "Weight gain", "setting": "[1]; Day 1-36, 10 mg/kg feed", "value": "2359^A g"}, {"measurement": "Weight gain, relative to control (100)", "setting": "[1]; Day 1-36, 10 mg/kg feed", "value": 102.5}, {"measurement": "Feed conversion", "setting": "[1]; Day 22-36, 10 mg/kg feed", "value": "1.769^A g feed/g gain"}, {"measurement": "Feed conversion, relative to control (100)", "setting": "[1]; Day 22-36, 10 mg/kg feed", "value": 101.1}, {"measurement": "Feed intake", "setting": "[1]; Day 22-36, 10 mg/kg feed", "value": "2412^A g"}, {"measurement": "Weight gain", "setting": "[1]; Day 22-36, 10 mg/kg feed", "value": "1366^A g"}, {"measurement": "Weight gain, relative to control (100)", "setting": "[1]; Day 22-36, 10 mg/kg feed", "value": 101.4}]}, {"smiles": "O=C(O)CCC(=O)O", "note": "[Succinic acid, succinic acid]", "values": [{"measurement": "MIC90", "setting": "[2]", "value": "< 31.2", "unit": "mM"}, {"measurement": "DWG numerically higher than control group", "setting": "[3]", "value": 5, "unit": "%"}, {"measurement": "Weight gain", "setting": "[3]; group B, n = 24", "value": "6.57 ± 1.91", "unit": "kg"}, {"measurement": "MIC90", "setting": "Clostridium perfringens", "value": "< 31.2", "unit": "mM"}, {"measurement": "MIC90", "setting": "Enterococcus faecalis", "value": "< 31.2", "unit": "mM"}, {"measurement": "Daily feed intake", "setting": "[4]; Day 0-14", "value": 368, "unit": "g"}, {"measurement": "Daily feed intake", "setting": "[4]; Day 14-24", "value": 649, "unit": "g"}, {"measurement": "Live weight of piglets", "setting": "[4]; Day 14", "value": 12.01, "unit": "kg"}, {"measurement": "Daily feed intake", "setting": "[4]; Day 24-36", "value": 869, "unit": "g"}, {"measurement": "Live weight of piglets", "setting": "[4]; Day 24", "value": 16.90, "unit": "kg"}, {"measurement": "Live weight of piglets", "setting": "[4]; Final, day 36", "value": 24.32, "unit": "kg"}, {"measurement": "Live weight of piglets", "setting": "[4]; Initial, day 0", "value": 8.51, "unit": "kg"}, {"measurement": "Daily feed intake", "setting": "[4]; Overall, day 0-36", "value": 613, "unit": "g"}, {"measurement": "reduction of feed intake versus control", "setting": "[4]; day 0-14, dietary level of 1.0%", "value": "−25.4", "unit": "%"}, {"measurement": "MIC90", "setting": "[5]", "value": "< 31.2", "unit": "mM"}, {"measurement": "MIC90", "setting": "[6]", "value": "< 31.2", "unit": "mM"}, {"measurement": "Feed conversion", "setting": "[1]; Day 1-22, 2.5 g/kg feed", "value": "1.365^B g feed/g gain"}, {"measurement": "Feed intake", "setting": "[1]; Day 1-22, 2.5 g/kg feed", "value": "1427^A g"}, {"measurement": "Weight gain", "setting": "[1]; Day 1-22, 2.5 g/kg feed", "value": "1046^A g"}, {"measurement": "Feed conversion", "setting": "[1]; Day 1-22, 5 g/kg feed", "value": "1.461^A g feed/g gain"}, {"measurement": "Feed intake", "setting": "[1]; Day 1-22, 5 g/kg feed", "value": "1446^A g"}, {"measurement": "Weight gain", "setting": "[1]; Day 1-22, 5 g/kg feed", "value": "991^BC g"}, {"measurement": "Feed conversion", "setting": "[1]; Day 1-22, 7.5 g/kg feed", "value": "1.372^B g feed/g gain"}, {"measurement": "Feed intake", "setting": "[1]; Day 1-22, 7.5 g/kg feed", "value": "1445^A g"}, {"measurement": "Weight gain", "setting": "[1]; Day 1-22, 7.5 g/kg feed", "value": "1054^A g"}, {"measurement": "Feed conversion", "setting": "[1]; Day 1-22, 10 g/kg feed", "value": "1.381^B g feed/g gain"}, {"measurement": "Feed intake", "setting": "[1]; Day 1-22, 10 g/kg feed", "value": "1430^A g"}, {"measurement": "Weight gain", "setting": "[1]; Day 1-22, 10 g/kg feed", "value": "1036^AB g"}, {"measurement": "Feed conversion", "setting": "[1]; Day 1-36, 2.5 g/kg feed", "value": "1.602^A g feed/g gain"}, {"measurement": "Feed intake", "setting": "[1]; Day 1-36, 2.5 g/kg feed", "value": "3817^A g"}, {"measurement": "Weight gain", "setting": "[1]; Day 1-36, 2.5 g/kg feed", "value": "2383^A g"}, {"measurement": "Feed conversion", "setting": "[1]; Day 1-36, 5 g/kg feed", "value": "1.642^A g feed/g gain"}, {"measurement": "Feed intake", "setting": "[1]; Day 1-36, 5 g/kg feed", "value": "3793^A g"}, {"measurement": "Weight gain", "setting": "[1]; Day 1-36, 5 g/kg feed", "value": "2311^A g"}, {"measurement": "Feed conversion", "setting": "[1]; Day 1-36, 7.5 g/kg feed", "value": "1.612^A g feed/g gain"}, {"measurement": "Feed intake", "setting": "[1]; Day 1-36, 7.5 g/kg feed", "value": "3870^A g"}, {"measurement": "Weight gain", "setting": "[1]; Day 1-36, 7.5 g/kg feed", "value": "2404^A g"}, {"measurement": "Feed conversion", "setting": "[1]; Day 1-36, 10 g/kg feed", "value": "1.651^A g feed/g gain"}, {"measurement": "Feed intake", "setting": "[1]; Day 1-36, 10 g/kg feed", "value": "3868^A g"}, {"measurement": "Weight gain", "setting": "[1]; Day 1-36, 10 g/kg feed", "value": "2347^A g"}, {"measurement": "Feed conversion", "setting": "[1]; Day 22-36, 2.5 g/kg feed", "value": "1.790^A g feed/g gain"}, {"measurement": "Feed intake", "setting": "[1]; Day 22-36, 2.5 g/kg feed", "value": "2392^A g"}, {"measurement": "Weight gain", "setting": "[1]; Day 22-36, 2.5 g/kg feed", "value": "1337^A g"}, {"measurement": "Feed conversion", "setting": "[1]; Day 22-36, 5 g/kg feed", "value": "1.786^A g feed/g gain"}, {"measurement": "Feed intake", "setting": "[1]; Day 22-36, 5 g/kg feed", "value": "2347^A g"}, {"measurement": "Weight gain", "setting": "[1]; Day 22-36, 5 g/kg feed", "value": "1320^A g"}, {"measurement": "Feed conversion", "setting": "[1]; Day 22-36, 7.5 g/kg feed", "value": "1.806^A g feed/g gain"}, {"measurement": "Feed intake", "setting": "[1]; Day 22-36, 7.5 g/kg feed", "value": "2431^A g"}, {"measurement": "Weight gain", "setting": "[1]; Day 22-36, 7.5 g/kg feed", "value": "1350^A g"}, {"measurement": "Feed conversion", "setting": "[1]; Day 22-36, 10 g/kg feed", "value": "1.870^A g feed/g gain"}, {"measurement": "Feed intake", "setting": "[1]; Day 22-36, 10 g/kg feed", "value": "2442^A g"}, {"measurement": "Weight gain", "setting": "[1]; Day 22-36, 10 g/kg feed", "value": "1311^A g"}, {"measurement": "numerical improvement of weight gain compared to the control", "setting": "[1]; 2.5 g per kg feed", "value": 3.6, "unit": "%"}, {"measurement": "numerical improvement of weight gain compared to the control", "setting": "[1]; 7.5 g per kg feed", "value": 4.5, "unit": "%"}, {"measurement": "improvement of weight gain compared to the control", "setting": "[1]; starter period (day 1-22), across the different inclusion levels", "value": "3.9% to 10.5"}]}, {"smiles": "O=C(O)CC(O)(CC(=O)O)C(=O)O", "note": "[citric acid, reference compound]", "values": [{"measurement": "MIC90", "setting": "[2]", "value": "< 31.2", "unit": "mM"}, {"measurement": "MIC90", "setting": "Clostridium perfringens", "value": "< 31.2", "unit": "mM"}, {"measurement": "MIC90", "setting": "Enterococcus faecalis", "value": "< 31.2", "unit": "mM"}, {"measurement": "MIC90", "setting": "[5]", "value": "< 31.2", "unit": "mM"}, {"measurement": "MIC90", "setting": "[6]", "value": "< 31.2", "unit": "mM"}]}]}
